{
  "source": "patent US20080299109A1",
  "about": "“MECHANISM OF ASTRICYTE-NEURON SIGNALING” (Korea Institute of Science and Technology, priority 2007, published 2008)",
  "key": {"[1]": {"system": "PAR1−/− mouse astrocytes", "experiment": "Fura-2 intracellular Ca2+ imaging in cultured PAR1−/− astrocytes", "format": "cell-based", "settings": "30 μM TFLLR, 30 nM thrombin, 10 μM ATP positive control", "description": "Cultured astrocytes were prepared from P0-P3 postnatal mice obtained from KIST SPF. The cerebral cortex was dissected free of adherent meninges, minced, and dissociated into single cell suspension by trituration through a Pasteur pipette. All procedures involving the use of animals were reviewed and approved by the Emory University IACUC. Dissociated cells were plated onto either 12 mm glass coverslips or 6 well plates coated with 0.1 mg/ml poly-D-lysine. Cells were grown in a DMEM media (Gibco, cat# 11960-044) supplemented with 25 mM glucose, 10% heat-inactivated horse serum, and 10% heat-inactivated fetal bovine serum, 2 mM glutamine, and 1000 units/ml penicillin-streptomycin. Cultures were maintained at 37° C. in a humidified 5% CO2-containing atmosphere. Astrocyte cultures prepared in this way were previously determined by GFAP (glial fibrillary acidic protein) staining to be greater than 95% astrocytes (Nicole et al., 2005). In some experiments, the culture media was replaced 24 hours after plating with DMEM with all added components except glutamine, and cultures were maintained for 4 days before experimentation in glutamine-free media.\nCultured astrocytes were incubated with 5 µM Fura2-AM in […] pluronic acid (Molecular Probes) for 30 min at room temperature, and subsequently transferred to a microscope stage for imaging. […]"}, "[2]": {"system": "CA1 pyramidal neurons", "experiment": "Ca2+ dye imaging of CA1 pyramidal neurons in hippocampal slices", "format": "cell-based, rat", "settings": "thrombin 30 nM, TFLLR 30 μM, trans-ACPD 100 μM, (S)-3,5-dihydroxyphenylglycine 30 μM", "description": "(§1) Young rats (Sprague-Dawley, age P15-P20) or mice (C57/B16, age P14-19) were deeply anesthetized with isoflurane and decapitated. The brain was rapidly removed and submerged in an ice-cold oxygenated artificial cerebrospinal fluid (ACSF) comprised of 130 mM NaCl, 24 mM NaHCO3, 3.5 mM KCl, 1.25 mM NaH2PO4, 1 mM CaCl2,3 mM MgCl2, and 10 mM glucose saturated with 95% O2/5% CO2, at pH 7.4.\nThe external solution contained 1 μM TTX. Throughout the experiments, −5 mV voltage steps (15 ms duration) were applied at 30 sec intervals from a holding potential of −70 mV to continuously monitor the holding current, series resistance, and membrane input resistance. After entering whole-cell mode, the CA1 pyramidal cells in slices were maintained for 20 min to allow for dye filling before image acquisition using a Princeton Micromax camera.\nAfter the baseline period, TFLLR (30-100 μM) was applied, and images were acquired every 3 sec with a 25 ms exposure to 450-490 nm light for each image. Ca^2+-dependent fluorescence intensity (520 nm) was measured in cell bodies and processes by using Axon Imaging Workbench (v2.2.1) and expressed as ratio image of (F-Fo)/Fo, where Fo is the fluorescence intensity before drug treatment."}, "[3]": {"system": "NMDA receptor-mediated component of the EPSP", "experiment": "Current clamp EPSP recording in CA1 pyramidal cells", "format": "cell-based, rat", "settings": "30 μM TFLLR, 30 nM thrombin", "description": "as §1\nThe hemisected brain was glued onto the stage of a vibrating microtome (Leica VT1000 S) and sections of 300 μm thickness were cut and stored in an incubation chamber at room temperature for about 1 h before use. […]\nSynaptic responses were evoked by applying 0.1 ms current injection (1-100 μA) to a bipolar stimulating electrode placed in the stratum radiatum. Thrombin (Calbiochem) concentration was determined as described by Gingrich et al. (2000) using conversion of 1 U/ml=10 nM. […]\nA series of current clamp experiments were carried out to directly measure the effects of PAR1 activation on the NMDA receptor-mediated component of the EPSP recorded in the presence of 1.5 mM Mg^2+. […]"}},
  "data": [
    {"substance": "thrombin", "values": [
      {"measurement": "intracellular Ca^2+ concentration in PAR1−/− astrocytes", "setting": "[1]", "result": "did not cause an increase"},
      {"measurement": "somatic fluorescence of Ca^2+-sensitive dyes in CA1 pyramidal neurons", "setting": "[2]", "result": "no significant increase"},
      {"measurement": "potentiation of synaptic NMDA component of EPSPs at 34° C.", "setting": "[3]", "result": "120±6", "unit": "%"}
    ]}
  ]
}
